Reference: US10555986B2, “Dietary supplement derived from natural prodcuts by hot melt extrusion (HME) processing” (INSTITUTO DE CAPACITACIÓN E INVESTIGACIÓN DEL PLÁS, priority 2017, dated 2020)

Key:
[1] = release profile of (−)-Epicatechin in artificial saliva at pH 6.2 and 23° C.; format: physicochemical; settings: artificial saliva pH 6.2, 23° C.
Method: FIG. 20 describes the release profile of (−)-Epicatechin in artificial saliva at pH 6.2 and 23° C. for examples X to XIII with a particle size distribution between 250 μm and 425 μm (Mesh 40).
FIG. 21 illustrates the release profile of (−)-Epicatechin in artificial saliva at pH 6.2 and 23° C. for EXAMPLE X to XIII with a particle size distribution between 180 μm and 250 μm (Mesh 60).

[2] = release profile of (−)-Epicatechin, 2 hour in medium pH 1.2 and 2 more hours in medium pH 6.8, at 37° C.; format: physicochemical
Method: Releases for EXAMPLES I TO V.
FIG. 22 features release profile of (−)-Epicatechin at 2 hour in a medium with pH of 1.2 and 2 more hours in a medium with pH of 6.8, at 37° C. Releases for examples X to XIII with a particle size distribution between 250 μm and 425 μm (Mesh 40); and particle size distribution between 180 μm and 250 μm (Mesh 60).

[3] = background statement; cited from earlier work
[4] = after permanent coronary occlusion; background statement; cited from earlier work
[5] = relative to mannitol; background statement; cited from earlier work

In the case of `Oc1cc(O)c2c(c1)O[C@H](c1ccc(O)c(O)c1)[C@H](O)C2` [EPICATECHIN AT 90%, (−)-Epicatechin (2R,3R)], the “% release” value ([1]; 30 s) is reported as 75.30%, the release profile percentages ([1]; 30 s, Table 13) is reported as 75.30% and the release profile percentages ([1]; 30 s, Table 14) is reported as 75.30%. The “% release” value ([1]; 60 s) was 88.70%, the release profile percentages ([1]; 60 s, Table 13) was 88.70% and the release profile percentages ([1]; 60 s, Table 14) was 88.70%. For the same molecule, the “% release” value ([1]; 120 s) was 93.43%, the release profile percentages ([1]; 120 s, Table 13) was 93.43% and the release profile percentages ([1]; 120 s, Table 14) was 93.43%. The “% release” value ([2]; 1 h, medium pH 1.2, 37° C.) was 98.59%, the release profile percentages ([2]; 1 h, medium pH 1.2, 37° C., Table 13) was 98.59% and the release profile percentages ([2]; 1 h, medium pH 1.2, 37° C., Table 14) was 98.59%. For the same molecule, the “% release” value ([2]; 2 h, medium pH 1.2, 37° C.) was 99.94%, the release profile percentages ([2]; 2 h, medium pH 1.2, 37° C., Table 13) was 99.94% and the release profile percentages ([2]; 2 h, medium pH 1.2, 37° C., Table 14) was 99.94%. For the same molecule, the “% release” value ([2]; 3 h, 2 h pH 1.2 then medium pH 6.8, 37° C.) was 100.22%, the release profile percentages ([2]; 3 h, 2 h pH 1.2 then pH 6.8, 37° C., Table 13) was 100.22% and the release profile percentages ([2]; 3 h, 2 h pH 1.2 then pH 6.8, 37° C., Table 14) was 100.22%. The “% release” value ([2]; 4 h, 2 h pH 1.2 then medium pH 6.8, 37° C.) was 100.84%, the release profile percentages ([2]; 4 h, 2 h pH 1.2 then pH 6.8, 37° C., Table 13) was 100.84% and the release profile percentages ([2]; 4 h, 2 h pH 1.2 then pH 6.8, 37° C., Table 14) was 100.84%. For the same molecule, the oral bioavailability [3] was “less than 5%”, the “reduction in scar (infarct) size” value [4] was “approximately 33%” and the “quenches OH more effectively than mannitol” value [5] was 100 times.
